What all share (experiment): NCI tumour cell line growth inhibition, 48 h
Assay [1] relates to RPMI-8226 leukemia.
The subject of assay [2] is CCRF-CEM leukemia.
Assay [3] deals with DU-145 prostate.
Assay [4] has as its system U251 CNS.
The test system of assay [5] is OVCAR-5 ovarian.
The subject of assay [6] is SF-295 CNS.
Assay [7] deals with M14 melanoma.
Assay [8] deals with NCI/ADR-RES ovarian.
In assay [9] the test system is SK-OV-3 ovarian.
Assay [10] deals with NCI-H460 lung.

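Dose response: 5 concentrations. Exposure: 48 h. Format: 96-well plates. Endpoint: linear interpolation; highest concentration if not reached. Abbreviation: GI50, concentration required for 50% inhibition of growth. TGI marks complete inhibition of growth.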

In the case of `N#Cc1c(C#N)c(-c2ccccc2)n(-c2ccccc2)c1N`, the TGI in [1], in [2], in [3], in assay [4], in assay [5] and in [6] was over 100 µM each time. The TGI in [7], in assay [8] and in assay [9] was over 100 µM each time.
Turning to `CC1=CC(=O)C(C(O)(C(F)(F)F)C(F)(F)F)C(C)(C)C1` (configuration not stated), the TGI in assay [1], in assay [2], in assay [3], in [4], in assay [10] and in assay [6] was over 10 µM throughout. Further, the TGI in assay [7], in assay [8] and in assay [9] was over 10 µM each time.
Take `CC(C)CCn1nc(N)c2nc3ccccc3nc21`: the TGI in [1], in assay [2], in assay [4], in assay [10], in assay [5] and in [6] was over 100 µM each time. For the same molecule, the TGI in [7], in assay [8] and in assay [9] was over 100 µM in each case.
For the molecule `COc1ccc(/C=N/N2C(=O)c3c(N)c(C#N)c(-c4ccccc4)c(-c4ccccc4)c3C2=O)cc1`, the TGI in [1], in [2], in [3], in [4], in assay [10] and in [5] was over 100 µM throughout. In addition, the TGI in assay [6], in assay [7] and in [8] was over 100 µM in each case.
Turning to `O=C(O)CC(NC(=O)/C(=C/c1ccccc1O)NC(=O)c1ccccc1)C(=O)O` (configuration not stated), the TGI in assay [1], in assay [2], in assay [4], in assay [5], in assay [6] and in [7] was over 100 µM in each case. The TGI in assay [8] and in assay [9] was over 100 µM in each case.
In the case of `CC(C)(C)OC(=O)n1c(-c2ccccc2F)cc(=O)c2cc3c(cc21)OCO3`, the TGI is 20.7 µM in assay [1]; 11.1 µM in assay [2]; over 100 µM in [3]; over 32.9 µM in [4]; over 70.8 µM in assay [10]; over 100 µM in assay [5]. Besides, the TGI is over 100 µM in [6], over 100 µM in assay [7] and 0.0555 µM in assay [8].
For the molecule `c1csc(-c2c3ccc(=[N+]4CCCCC4)cc-3oc3cc(N4CCCCC4)ccc23)c1`, the GI50 in assay [2] is 50.3 nM; in [3], 0.0578 µM; in assay [5], 202 nM; in assay [7], 77.6 nM; in assay [9], 212 nM. In addition, the TGI was 1.07 µM in assay [2]; 0.201 µM in assay [3]; 0.733 µM in assay [5]; 0.215 µM in assay [7]; 0.682 µM in [9].
Turning to `O=C(CCCN1CCC2(CC1)C(=NC1CCCCC1)NC(=O)N2c1ccccc1)c1ccc(F)cc1`, the TGI in assay [1] is 49.5 µM; in [2], 64.4 µM; in assay [3], over 100 µM; in assay [4], 81.1 µM; in [10], 54.5 µM; in [5], 55 µM. Also, the TGI was found to be 39.2 µM in assay [6], 32.8 µM in assay [7] and 51.4 µM in assay [8].
Regarding `CN(C)P(=O)(Oc1occc1C(O)Cc1ccccc1)N(C)C` (configuration not stated), the TGI in assay [1], in assay [2], in assay [4], in assay [10], in assay [5] and in assay [6] was over 100 µM in each case. The TGI in assay [7], in assay [8] and in assay [9] was over 100 µM throughout.
Regarding `CC1(C)[C@@H](Cn2cnc3c(Cl)nc(N)nc32)CC[C@@]1(C)CO`, the TGI in [1] is 89.2 µM; in assay [2], over 100 µM; in assay [3], over 100 µM; in [4], over 100 µM; in assay [5] it was over 100 µM; in [6], over 100 µM. For the same molecule, the TGI in assay [7], in assay [8] and in [9] was over 100 µM in each case.
Take `O=C(Nc1ccc(-n2cc(-c3ccncc3)c(-c3ccc(O)c(Cl)c3)n2)cc1)Nc1cccc(Cl)c1Cl`: the GI50 is 912 nM in assay [1]; 2470 nM in assay [2]; 12.8 µM in assay [3]; 2540 nM in [4]; 5.74 µM in assay [10]; over 32500 nM in [5]. For the same molecule, the GI50 in assay [6] was 6.13 µM; in assay [7], 3160 nM; in assay [8] it was over 32.5 µM. For the same molecule, the TGI in assay [1] is 6.08 µM; in assay [2], over 32.5 µM; in assay [3], over 32.5 µM; in assay [4], 25 µM; in assay [10], over 32.5 µM; in assay [5] it was over 32.5 µM. Further, the TGI in assay [6], in [7] and in assay [8] was over 32.5 µM throughout.
Regarding `CC(O)CC(O)(C(F)(F)F)C(F)(F)F` (configuration not stated), the TGI in [1], in assay [2], in [3], in [4], in assay [10] and in [6] was over 10 µM in each case. Moreover, the TGI in [7], in assay [8] and in assay [9] was over 10 µM each time.
On to `O=C(CNCc1ccccc1)Oc1c(Cl)c(Cl)c(Cl)c(Cl)c1Cl`, for which the TGI in assay [3] was 44.3 µM; in [4], 70.5 µM; in assay [10], over 100 µM; in assay [5] it was over 100 µM; in [6], 92.9 µM; in assay [7], over 100 µM. The TGI in assay [8] and in [9] was over 100 µM in each case.
For `CC(C)(C)OC(=O)C1C(=O)NC(=O)CC1C(COCc1ccccc1)OCc1ccccc1` (configuration not stated), the TGI in [1] was 62.6 µM; in [2] it was 77.3 µM; in [3], over 100 µM; in assay [4], 40.2 µM; in [5] it was 41.1 µM; in assay [6], 43.3 µM. The TGI in assay [7] amounted to 34.8 µM.

For the origin of these results see PubChem BioAssay (NCI).
